{"source": "paper PMC3424241", "about": "“The Octadecaneuropeptide ODN Protects Astrocytes against Hydrogen Peroxide-Induced Apoptosis via a PKA/MAPK-Dependent Mechanism” (PLoS ONE, 2012)", "key": {"ERK1 and ERK2": {"test_system": "ERK1 and ERK2", "test": "ERK phosphorylation, Western blot", "type": "cell-based, rat", "procedure": "(§1) Secondary cultures of rat cortical astrocytes were prepared as previously described [64]with minor modifications. Briefly, cerebral hemispheres from newborn Wistar rats were collected in DMEM/F12 (2∶1; v/v) culture medium supplemented with 2 mM L-glutamine, 1‰ insulin, 5 mM HEPES, 0.4% glucose and 1% of the antibiotic-antimycotic solution. The tissues were dissociated mechanically with a syringe equipped with a 1-mm gauge needle, and filtered through a 100-µm sieve (Falcon, Franklin Lakes, NJ, USA). Dissociated cells were resuspended in culture medium supplemented with 10% FBS, plated in 175-cm^2 flasks (Greiner Bio-one GmbH, Frickenhausen, Germany) and incubated at 37°C in a 5% CO2/[…] atmosphere. When cultures were confluent, astrocytes were isolated by shaking overnight the flasks on an orbital agitator. Adhesive cells were detached by trypsination and preplated for 5 min to discard contaminating microglial cells. Then, the non-adhering astrocytes were harvested and plated on 35-mm hydrophilic surface Petri dishes at a density of 3×10^5 cells/ml. For measurement of cell survival, caspase-3 activity and mitochondrial activity, cells were plated in hydrophilic surface 24-well plates at a density of 8×10^4 cells/ml. The cells were incubated at 37°C in a humid atmosphere (5% CO2). After 5 days (DIV5), more than 99% of the cells were labeled with antibodies against glial fibrillary acidic protein [65]. All experiments were performed on 5- to 7-day-old secondary cultures.\nCultured cells were incubated at 37°C for 1 h with fresh serum-free medium in the absence or presence of test substances. Total proteins were extracted with lysis buffer containing 1% Triton X-100, 50 mM Tris/HCl and 10 mM EDTA. After centrifugation (20,000 g, 4°C, 15 min), the proteins contained in the supernatant were precipitated by addition of ice-cold 10% TCA. The extract was centrifuged (15,000 g, 4°C, 15 min) and washed three times with alcohol/ether. The pellet was denatured (100°C, 5 min) in 50 mM Tris/HCl (pH 7.5) containing 20% glycerol, 0.7 M 2-mercaptoethanol, 0.004% bromophenol blue and 3% SDS, and then migrated on a 10% SDS-polyacrylamide gel electrophoresis (PAGE). After separation, proteins were electrically transferred onto nitrocellulose membrane (Amersham, Les Ulis, France). […] Signal was quantified using an image analysis system (Biocom, Les Ulis, France)."}, "[1]": {"test_system": "mitochondria of cultured astrocytes", "test": "Mitochondrial membrane potential, JC-1 probe", "type": "cell-based, rat", "settings": "ODN 0.1 nM, 10 min pretreatment, then 1 h 300 µM H2O2", "procedure": "as §1, with “For measurement of cell survival, caspase-3 activity and mitochondrial activity, cells were plated in hydrophilic surface 24-well plates at a density of 8×10^4 cells/ml. The cells were incubated at 37°C in a humid atmosphere (5% CO2). After 5 days (DIV5), more than 99% of the cells were labeled with antibodies against glial fibrillary acidic protein [65]. All experiments were performed on 5- to 7-day-old secondary cultures.” left out\nCells seeded into 24-well plates were subjected to various treatments, incubated in the presence of the JC-1 probe (3 µl/ml) at 37°C for 15 min and then washed twice with PBS. Mitochondrial integrity was assessed with the JC-1 probe. […]"}, "caspase-3": {"test_system": "caspase-3", "design": "method as in PMID 21599667", "settings": "subnanomolar concentrations of ODN, cultured astrocytes; cited from earlier work"}}, "data": [{"substance": "ODN: octadecaneuropeptide, endozepine derived from diazepam-binding inhibitor; endogenous ligand of central-type benzodiazepine and metabotropic receptors; synthesized by Fmoc procedure (QATVGDVNTDRPGLLDLK; Octadecaneuropeptide; UniProt P11030 34-51, looked up)", "values": [{"measurement": "ERK phosphorylation", "setting": "ERK1 and ERK2; ODN 0.1 nM, after 60 min of treatment, percentages of control", "value": 206, "unit": "%"}, {"measurement": "time to detectable increase of ERK phosphorylation", "setting": "ERK1 and ERK2; ODN 0.1 nM, time-course", "value": "≤ 20", "unit": "min"}, {"measurement": "effect on ERK phosphorylation", "setting": "ERK1 and ERK2; graded ODN 1 fM to 0.1 nM, 1 h, Western blot", "value": "concentration-related stimulation of ERK phosphorylation"}, {"measurement": "effect on H2O2-induced alteration of the mitochondrial membrane potential", "setting": "[1]", "value": "suppressed this deleterious effect of H2O2 on the mitochondrial membrane potential"}, {"measurement": "effect on H2O2-induced caspase-3 activation", "setting": "caspase-3", "value": "inhibit H2O2-induced caspase-3 activation"}]}]}
